Measurements published in patent publication US4877893A, “Process for the preparation of 2-(O-alkyl)-2-thio-1,3,2-oxathiophospholanes” (priority 1987, dated 1989).

Columns and labels:
Assay in all cases: Fungicidal effect on infected agar nutrient media, colony diameter
Type in all cases: cell-based
Penicillium cyclopium = conditions: 7th day after treatment, untreated 26.5
Protocol: (§1) Agar nutrient media (Diameter 70 MM, thickness 10 mm) infected by Sclerotonia sclerotinia suspension are treated with 20 EC formulations prepared according to Example 27 and comprising 1, 10, 100 and 1000 ppm, respectively of the active ingredient of the Formula I. The fungicidal effect of the compositions is evaluated on the 3rd day after treatment by measuring the diameter of the Fungi colonies.
The series of measureents described in Example 35 is carried out except that the agar nutrient media are infected by a Penicillium cyclopium Fungi strain and the test is evaluated on the 7th day after treatment.

Alternaria tenuis = conditions: 5th day after treatment, untreated control 36.8
Protocol: as §1
The series of measurements according to Example 35 is carried out except that the agar nutrient media are infected by Alternaria Tenius and evaluation is accomplished on the 5th day after treatment.

Sclerotinia sclerotinia = conditions: 3rd day after treatment, untreated control 41.7
Protocol: as §1

SMILES | Diameter of colony (mm) (Penicillium cyclopium; 1 ppm) | Diameter of colony (mm) (Penicillium cyclopium; 10 ppm) | Diameter of colony (mm) (Penicillium cyclopium; 100 ppm) | Diameter of colony (mm) (Penicillium cyclopium; 1000 ppm) | Diameter of colony (mm) (Alternaria tenuis; 1 ppm) | Diameter of colony (mm) (Alternaria tenuis; 10 ppm) | Diameter of colony (mm) (Alternaria tenuis; 100 ppm) | Diameter of colony (mm) (Alternaria tenuis; 1000 ppm) | Diameter of colony (mm) (Sclerotinia sclerotinia; 1 ppm) | Diameter of colony (mm) (Sclerotinia sclerotinia; 10 ppm) | Diameter of colony (mm) (Sclerotinia sclerotinia; 100 ppm) | Diameter of colony (mm) (Sclerotinia sclerotinia; 1000 ppm)
S=P1(OCCBr)OCCS1 (stereo not drawn) [Compound 2, 2-(O-2'-bromoethyl)-2-thio-1,3,2-oxathiophospholane] | 24.6 | 19.0 | 8.4 | 0 | 30.9 | 26.1 | 5.3 | 0 | 32.9 | 29.3 | 3.1 | 0
S=P1(OCCI)OCCS1 (stereo not drawn) [Compound 3, 2-(O-2'-iodoethyl)-2-thio1,3,2-oxathiophospholane] | 25.0 | 18.6 | 7.1 | 0 | 34.6 | 22.4 | 6.8 | 0 | 37.4 | 30.0 | 2.1 | 0
CC1CSP(=S)(OCCCl)O1 (stereo not drawn) [Compound 4, 2-(0-2'-chloroethyl)-2-thio-5-methyl-1,3,2-oxathiophospholane] | 24.1 | 19.4 | 9.0 | 0 | 32.6 | 23.7 | 6.5 | 0 | 34.6 | 27.6 | 0 | 0
CC1CSP(=S)(OCCBr)O1 (stereo not drawn) [Compound 5] | 20.1 | 19.5 | 7.8 | 0 | 34.9 | 22.3 | 7.9 | 0 | 35.4 | 29.2 | 1.7 | 0
CC1CSP(=S)(OCCI)O1 (stereo not drawn) [Compound 6] | 21.3 | 17.3 | 9.0 | 0 | 35.5 | 21.0 | 6.0 | 0 | 39.3 | 30.0 | 1.0 | 0
